Reference: EP0335545B2, “Pharmaceutical formulations for parenteral use” (UNIVERSITY OF FLORIDA, priority 1988, dated 1989)
Values after ≈ are worked out from the molar mass of the structure shown.

Legend:
physchem [1] = experiment: physchem
Procedure: For comparison, the solubilities of the drugs in water were also determined.
• Wavelength: 245 nm • Column: Waters µBondapak CN, 3.9 mm (id.) x 30 cm • Mobile phase: acetonitrile, acetic acid, water (60:1:39) containing 0.1% 1-hexasulfonic acid, sodium salt • Flow rate: 2.00 mL/min.
• Wavelength: 263 nm • Column: ASI C18, 10 µm, 3.9 mm (i.d.) x 30 cm • Mobile phase: acetonitrile, water (55:45) • Flow rate: 1.00 mL/min.
• Wavelength: 241 nm • Column: Waters µBondapak CN, 3.9 mm (i.d.) x 30 cm • Mobile phase: acetonitrile, water (6:4) • Flow rate: 2.00 mL/min.
• Wavelength: 280 nm • Column: ASI C18, 10 µm, 3.9 mm (i.d.) x 30 cm • Mobile phase: acetonitrile, water (55:45) • Flow rate: 2.00 mL/min.
• Wavelength: 248 nm • Column: Fisher Resolvex C18, 4.6 mm (i.d.) x 25 cm • Mobile phase: acetonitrile, water (6:4) • Flow rate: 1.50 mL/min.
• Wavelength: 248 nm • Column: Fisher Resolvex C18, 4.6 mm (i.d.) x 25 cm • Mobile phase: acetonitrile, water (7:3) • Flow rate: 2.00 mL/min.
• Wavelength: 253 nm • Column: Waters µBondapak CN, 3.9 mm (i.d.) x 30 cm • Mobile phase: acetonitrile, […], water (60:1:39) containing 0.1% 1-hexanesulfonic acid, sodium salt • Flow rate: 2.00 mL/min.
• Wavelength 308 nm • Column: Fisher Resolvex C18, 4.6 mm (i.d.) x 25 cm • Mobile phase: methanol, acetic acid, water (50:1:49) containing 0.1% 1-octanesulfonic acid, sodium salt • Flow rate: 2.00 mL/min.
• Wavelength: 240 nm • Column: Fisher Resolvex C18, 4.6 mm (i.d.) x 25 cm • Mobile phase: acetonitrile, water (6:4) • Flow rate: 1.50 mL/min.
• Wavelength: 240 nm • Column: Fisher Resolvex C18, 4.6 mm (i.d.) x 25 cm Mobile phase: acetonitrile, water (7:3) • Flow rate: 2.00 mL/min.
• Wavelength: 241 nm • Column: Fisher Resolvex C18, 4.6 mm (i.d.) x 25 cm • Mobile phase: acetonitrile, water (7:3) • Flow rate: 2.00 mL/min.
• Wavelength: 230 nm • Column: Waters µBondapak CN, 3.9 mm (i.d.) x 30 cm • Mobile phase: acetonitrile, water (35:65) • Flow rate: 2.00 mL/min.
• Wavelength: 258 nm • Column: Fisher Resolvex C18, 4.6 mm (i.d.) x 25 cm • Mobile phase: acetonitrile, water (55:45) • Flow rate: 2.00 mL/min.
• Wavelength: 325 nm • Column: Waters µBondapak C18, 10 µm, 3.9 mm (i.d.) x 30 cm • Mobile phase: acetonitrile, water (55:45) • Flow rate: 1.00 mL/min.

[2] = Phase-solubility experiments in aqueous HPCD at 30.0±0.2°C (chlorambucil, lomustine, melphalan)
Procedure: (§1) After equilibration in a 30.0±0.2°C water bath in the dark for up to 72 hours, aliquots of the mixtures were filtered through 0.45 Mm membrane filters, diluted and the drug concentration determined by HPLC or UV methods.

[3] = Preparation of solid freeze-dried HPCD complexes: degree of incorporation; type: physicochemical; settings: freeze-dried complex from 50% w/w HPCD (ASDS 5.1)
Procedure: An excess of E2-CDS was added and the solution then was purged with helium. The resulting suspension was then sonicated for 30 minutes, filtered through a glass filter (ASTM 10-15M, Pyrex No. 36060) and freeze-dried overnight. Best results were obtained by hard-freezing the aqueous solution of the E2-CDS/HPCD complex for at least 10 hours before lyophilization. The degree of complex formation was determined by dissolving a small amount of the dry complex in methanol and then analyzing by high pressure liquid chromatography (HPLC).
An excess of E2-CDS or other CDS was added to a 50% w/w solution of HPCD. The suspension was sonicated for 30 minutes, filtered through 0.45 µm PVDF membranes and freeze-dried. The degree of incorporation was determined either spectrophotometrically or by HPLC. In some cases, the effect of solubilizing agents on the degree of incorporation was examined. This involved adding small amounts of polyoxyethylene 20 cetyl ether (Brij), polyoxyethylene sorbitan monooleate (Tween 80) or ethanol to the aqueous solution prior to lyophilization.
The retention time was 5.2 min. Other compounds were assayed spectrophotometrically.
The solution was degassed and the suspension was sonicated for 30 minutes, after which it was filtered and the filtrate was lyophilized. The dried filtrate contained 65.6 mg testosterone propionate or 29.6 mg T-CDS1 per gram of cyclodextrin complex. Compounds were analyzed for decomposition by thin-layer chromatography and ultraviolet absorption.

physchem [4] = settings: for solubility at 4 h: 50% aqueous hpcd
Procedure: as §1

For C#C[C@]1(OC(C)=O)CC[C@H]2[C@@H]3CCC4=CC(=O)CC[C@@H]4[C@H]3CC[C@@]21C [Norethindrone acetate], the “Increase in Solubility (HPCD/water)” value (physchem [1]) was “∼97,500”, the solubility (physchem [1]; 25% w/v hpcd) was 9410 µg/mL and the solubility (physchem [1]; 50% w/w hpcd) was 19500 µg/mL. It also gave a solubility (physchem [1]; water) of 0.2 µg/mL.

C[C@@H]1C[C@H]2[C@@H]3CCC4=CC(=O)C=C[C@]4(C)[C@@]3(F)[C@@H](O)C[C@]2(C)[C@@]1(O)C(=O)CO [Dexamethasone] gave a solubility (physchem [1]; 25% w/v hpcd) of 24200 µg/mL (≈ 61.6 mM), a solubility (physchem [1]; 50% w/w hpcd) of 44300 µg/mL (≈ 113 mM) and a solubility (physchem [1]; water) of 8 µg/mL (≈ 0.0204 mM).

For O=C1NC(=O)C(c2ccccc2)(c2ccccc2)N1 [Phenytoin], the “Increase in Solubility (HPCD/water)” value (physchem [1]) was “∼450”, the solubility (physchem [1]; 50% w/w hpcd) was 9300 µg/mL (≈ 36.9 mM) and the solubility (physchem [1]; water) was 20 µg/mL (≈ 0.0793 mM).

O=NN(CCCl)C(=O)NC1CCCCC1 [Lomustine] gave a solubility ([2]; 1% w/w aqueous hpcd) of 380 µg/mL (≈ 1.63 mM), a solubility ([2]; 5% w/w aqueous hpcd) of 1680 µg/mL (≈ 7.19 mM) and a solubility ([2]; 10% w/w aqueous hpcd) of 3330 µg/mL (≈ 14.2 mM). The solubility ([2]; 15% w/w aqueous hpcd) was 6260 µg/mL (≈ 26.8 mM), the solubility ([2]; 20% w/v aqueous hpcd) was 8440 µg/mL (≈ 36.1 mM) and the solubility ([2]; 20% w/w aqueous hpcd) was 8440 µg/mL (≈ 36.1 mM). For the same compound, the “increase: water/25% HPCD” value ([2]; 25% HPCD versus water) was 49.44, the solubility ([2]; 25% w/v aqueous hpcd) was 8900 µg/mL (≈ 38.1 mM) and the solubility ([2]; 25% w/w aqueous hpcd) was 8900 µg/mL (≈ 38.1 mM). The solubility at 4 h ([2]; 50% w/w aqueous hpcd) was about 12000 µg/mL (≈ 51.3 mM), the “degradation during the solubility experiments” value ([2]; aqueous HPCD, 30°) was “Some degradation occurred” and the solubility ([2]; water) was 180 µg/mL (≈ 0.77 mM). For the same compound, the solubility ([2]; water (0% hpcd)) was 180 µg/mL (≈ 0.77 mM).

In the case of CN1CCN=C(c2ccccc2)c2cc(Cl)ccc21 [Medazepam], the solubility (physchem [1]; 50% w/w hpcd, pH 7.5) is reported as 8300 µg/mL (≈ 30.7 mM) and the solubility (physchem [1]; water) is reported as 10 µg/mL (≈ 0.0369 mM).

With Estradiol 17-Valerate the “Amount of Drug in Dry Complex” value [3] was 23.5 mg/g.

In the case of O=C(O)CCCc1ccc(N(CCCl)CCCl)cc1 [Chlorambucil], the solubility at 3 h (physchem [4]; 1% aqueous hpcd) is reported as 740 µg/mL (≈ 2.43 mM), the solubility at 84 h (physchem [4]; 1% aqueous hpcd) is reported as 550 µg/mL (≈ 1.81 mM) and the solubility at 3 h (physchem [4]; 2% aqueous hpcd) is reported as 1480 µg/mL (≈ 4.86 mM). For the same compound, the solubility at 84 h (physchem [4]; 2% aqueous hpcd) was 840 µg/mL (≈ 2.76 mM), the solubility at 3 h (physchem [4]; 3% aqueous hpcd) was 2370 µg/mL (≈ 7.79 mM) and the solubility at 84 h (physchem [4]; 3% aqueous hpcd) was 680 µg/mL (≈ 2.24 mM). The solubility at 3 h (physchem [4]; 4% aqueous hpcd) was 3220 µg/mL (≈ 10.6 mM), the solubility at 84 h (physchem [4]; 4% aqueous hpcd) was 1500 µg/mL (≈ 4.93 mM) and the solubility at 3 h (physchem [4]; 5% aqueous hpcd) was 1460 µg/mL (≈ 4.8 mM). It also gave a solubility at 84 h (physchem [4]; 5% aqueous hpcd) of 1800 µg/mL (≈ 5.92 mM), a solubility at 84 h (physchem [4]; 7% aqueous hpcd) of 3760 µg/mL (≈ 12.4 mM) and a solubility at 3 h (physchem [4]; 10% aqueous hpcd) of 4960 µg/mL (≈ 16.3 mM). The solubility at 84 h (physchem [4]; 10% aqueous hpcd) was 5200 µg/mL (≈ 17.1 mM), the solubility at 3 h (physchem [4]; 15% aqueous hpcd) was 6360 µg/mL (≈ 20.9 mM) and the solubility at 84 h (physchem [4]; 15% aqueous hpcd) was 7600 µg/mL (≈ 25 mM). It also gave a solubility (physchem [4]; 20% aqueous hpcd) of 13100 µg/mL (≈ 43 mM), a solubility at 3 h (physchem [4]; 20% aqueous hpcd) of 8490 µg/mL (≈ 27.9 mM) and a solubility at 84 h (physchem [4]; 20% aqueous hpcd) of 13100 µg/mL (≈ 43 mM). It also gave a solubility (physchem [4]; 25% aqueous hpcd) of 18400 µg/mL (≈ 60.5 mM), a solubility at 3 h (physchem [4]; 25% aqueous hpcd) of 8850 µg/mL (≈ 29.1 mM) and a solubility at 84 h (physchem [4]; 25% aqueous hpcd) of 18400 µg/mL (≈ 60.5 mM). For the same compound, the solubility at 4 h (physchem [4]) was about 30000 µg/mL (≈ 98.6 mM), the solubility at 3 h (physchem [4]; aqueous 7% hpcd) was 2710 µg/mL (≈ 8.91 mM) and the solubility (physchem [4]; water) was 410 µg/mL (≈ 1.35 mM). For the same compound, the solubility at 3 h (physchem [4]; water (0% hpcd)) was 10 µg/mL (≈ 0.0329 mM) and the solubility at 84 h (physchem [4]; water (0% hpcd)) was 410 µg/mL (≈ 1.35 mM).

With CC1=C(/C=C/C(C)=C/C=C/C(C)=C/CO)C(C)(C)CCC1 [All-trans-Retinol] the “Increase in Solubility (HPCD/water)” value (physchem [1]) was “∼4,600”, the solubility (physchem [1]; 50% w/w hpcd) was 4600 µg/mL (≈ 16.1 mM) and the solubility (physchem [1]; water) was 1 µg/mL (≈ 0.00349 mM).

CN(Cc1cnc2nc(N)nc(N)c2n1)c1ccc(C(=O)N[C@@H](CCC(=O)O)C(=O)O)cc1 [Methotrexate] showed a solubility (physchem [1]; 50% w/w hpcd, pH 7.6) of 10000 µg/mL (≈ 22 mM) and a solubility (physchem [1]; water) of 45 µg/mL (≈ 0.099 mM).

N[C@@H](Cc1ccc(N(CCCl)CCCl)cc1)C(=O)O [Melphalan] showed a solubility (physchem [4]; 1% aqueous hpcd) of 4160 µg/mL (≈ 13.6 mM), a solubility (physchem [4]; 2% aqueous hpcd) of 4300 µg/mL (≈ 14.1 mM) and a solubility (physchem [4]; 3% aqueous hpcd) of 6240 µg/mL (≈ 20.4 mM). It also gave a solubility (physchem [4]; 4% aqueous hpcd) of 7140 µg/mL (≈ 23.4 mM), a solubility (physchem [4]; 5% aqueous hpcd) of 7200 µg/mL (≈ 23.6 mM) and a solubility (physchem [4]; 7% aqueous hpcd) of 10500 µg/mL (≈ 34.4 mM). It also gave a solubility (physchem [4]; 10% aqueous hpcd) of 13400 µg/mL (≈ 43.8 mM), a solubility (physchem [4]; 15% aqueous hpcd) of 17600 µg/mL (≈ 57.8 mM) and a solubility (physchem [4]; 20% aqueous hpcd) of 24800 µg/mL (≈ 81.1 mM). It also gave a solubility (physchem [4]; 25% aqueous hpcd) of 31400 µg/mL (≈ 103 mM), a solubility at 4 h (physchem [4]) of about 21900 µg/mL (≈ 71.8 mM) and a solubility (physchem [4]; water) of 1260 µg/mL (≈ 4.13 mM). For the same compound, the solubility (physchem [4]; water (0% hpcd)) was 1260 µg/mL (≈ 4.13 mM).

For “1-methyl-3-{[2-(9-guanylmethoxy)ethoxy]carbonyl}-1,4-dihydropyridine [ACV-CDS]”, the “Amount of Drug in Dry Complex” value [3] was 25 mg/g.

In the case of C#C[C@]1(O)CC[C@H]2[C@@H]3CCc4cc(O)ccc4[C@H]3CC[C@@]21C [17 α-Ethynylestradiol], the solubility (physchem [1]; 25% w/v hpcd) is reported as 34500 µg/mL (≈ 116 mM), the solubility (physchem [1]; 50% w/w hpcd) is reported as 68200 µg/mL (≈ 230 mM) and the solubility (physchem [1]; water) is reported as 8 µg/mL (≈ 0.027 mM).

For “1-methyl-3-N-[3-(benzyloxycarbonyl)propyl]-carbamoyl-1,4-dihydropyridine [GABA-CDS1]”, the “Amount of Drug in Dry Complex” value [3] was 160 mg/g.

In the case of C#C[C@]1(O)CC[C@H]2[C@@H]3CCc4cc(OC)ccc4[C@H]3CC[C@@]21C [Ethynylestradiol 3-methyl ether], the “Increase in Solubility (HPCD/water)” value (physchem [1]) is reported as “∼13,000”, the solubility (physchem [1]; 25% w/v hpcd) is reported as 7130 µg/mL (≈ 23 mM) and the solubility (physchem [1]; 50% w/w hpcd) is reported as 13300 µg/mL (≈ 42.8 mM). The solubility (physchem [1]; water) was 1 µg/mL (≈ 0.00322 mM).
